Measured values: patent publication US20200093824A1, “ERBB3 Activators in Hearing Restoration” (University of Rochester, priority 2018, published 2020)
Entries after “also recorded” stand apart in the source; their conditions may differ.

How the values were obtained:
[1] = system: supporting cells in organ of Corti explants; test: Cochlear explant culture with Pa2g4/EBP1 inhibitors: EdU supporting cell proliferation; format: cell-based; conditions: P1-P2 wild type mouse explants, 48-72 hours, WS3 0.01 μM or WS6 0.5 μM vs DMSO, gradient from apex to base
Procedure: (§1) Cochleae were isolated from postnatal day 1-day 2 wild type or Atoh1-nGFP mice (Lumpkin, Collisson et al. 2003). The organ of Corti was isolated from the otic capsule, and the nerve tissue and stria vascularis were removed. The organ of Corti was plated on a glass coverslip coated with a 1:10 mixture of Matrigel and DMEM/F12 to promote attachment. Cochlear explants were cultured in a serum-free 1:1 mixture of DMEM and F12, supplemented with Glutamax, N2, and B27. For the treated cochlea, small molecules were added to this culture medium, while the control cochlea was cultured with medium containing DMSO at the same concentration used in the treatments. To measure proliferation, explants were treated with EdU (10 μg/ml) along with the drug or DMSO. Drug-treated explants were cultured for 3 days then fixed in 4% PFA for 30 min.
To quantify WS3 and WS6-treated cochleae, the length of the sensory epithelium was measured using ImageJ software with the overall length determined from the hook to the apex in each sample. The number of myosin VIIa-positive cells or Edu positive cells in the supporting cell region were manually counted. The total number of cells was counted in each of four cochlear segments of 1200-1400 μm (apical, mid-apical, mid-basal, and basal), density (cells per 100 μm) was then calculated for each segment. […]

[2] = system: organ of Corti explants (hair cells / supporting cells); test: Cochlear explant culture with Pa2g4/EBP1 inhibitors: MYO7+ / Atoh1-nGFP cell generation; format: cell-based, mouse; conditions: for Increase in number of MYO7+ cells in the apex / Atoh1-nGFP-positive cells near OHCs: Atoh1-nGFP mouse cochlear explants; for Increase in number of MYO7+ cells in the apex: WS3 or WS6 treatment; for Atoh1-nGFP-positive cells near OHCs: gradient from apex to base; for MYO7+ cell counts at the apex region versus controls: P1-P2 mouse organ of Corti explants, 48-72 hours, WS3 0.01 μM or WS6 0.5 μM vs DMSO, mean per 100 μm, WS6 p=0.0043, WS3 p=0.0060; for Concentration at which effects were observed in culture: application in culture
Procedure: as §1
To quantify WS3 and WS6-treated cochleae, the length of the sensory epithelium was measured using ImageJ software with the overall length determined from the hook to the apex in each sample. The number of myosin VIIa-positive cells or Edu positive cells in the supporting cell region were manually counted. The total number of cells was counted in each of four cochlear segments of 1200-1400 μm (apical, mid-apical, mid-basal, and basal), density (cells per 100 μm) was then calculated for each segment. Statistical analyses were performed using Prism version 7.0 software; comparisons among groups were made by one-way ANOVA followed by Dunnett's multiple-comparisons test for comparing the mean of each group with the mean of a control group.
Our findings with the conditional ErbB2 activation animal models have shown that the constitutive activation of ERBB2 can result in SC expansion and ectopic MYO7+ cell generation. To further validate the crucial role of ERBB2 activation, inventors turned to small molecules to pharmacologically activate the ErbB pathway and determine their effect on SC expansion and HC differentiation. Two compounds, WS3 and WS6, were chosen, as these two analogues promoted cell proliferation in growth arrested cells such as […] and retinal pigment epithelial (RPE) cells (Shen, Tremblay et al. 2013, Swoboda, Elliott et al. 2013). […] To test the effect of these drugs on SCs, they were applied to cochlear explants derived from Atoh1-nGFP reporter mice (Lumpkin, Collisson et al. 2003). […] The number of MYO7+ cells in the apex was increased by 20 cells/100 μm (FIGS. 7A and 7B).

p-ERBB2 in MCF-7 cells = test: Western blot of ERBB2 pathway activation with anti-p-ERBB2 antibody (Y1248); format: cell-based; conditions: MCF-7 breast cancer cells, treated for 15 minutes
Procedure: FIGS. 8A, 8A′. […] FIG. 8A. Images of the apex region of the P1-P2 organ of Corti cultured for 48-72 hours in the presence of DMSO, WS3 (0.01 μM), or WS6 (0.5 μM). MYO7a (green), SOX2 (red) and EdU (blue) are shown. IHC, inner hair cells; OHC, outer hair cells (FIG. 8A′) Cross section of organ of Corti from FIG. 8A at the yellow line. Scale bar: 25 microns. FIG. 8B. […] FIG. 8C. Western blot analysis of ERBB2 pathway activation was conducted using anti-p-ERBB2 antibody (Y1248) in MCF-7 cells. Cells were treated with WS3 or WS6 for 15 minutes.
To determine if the drug treatments promoted SC proliferation, the compound were applied to cochlear explants from wild type mice at P1-P2 with EdU present to label the proliferating cells. […] To confirm that the effect of the drugs was mediated through ERBB2 activation, the ERBB2 phosphorylation was analyzed using the protein lysates from cochlear explant.

[3] = system: retinal pigment epithelium (RPE) cells; conditions: Swoboda, Elliott et al. 2013; cited from earlier work
rodent diabetes model = conditions: by promoting cell proliferation, Shen, Tremblay et al. 2013; cited from earlier work

Row | Compound | EdU+ cells in the SOX2+ supporting cell region [1] | Increase in number of MYO7+ cells in the apex [2] | Atoh1-nGFP-positive cells near OHCs [2] | MYO7+ cell counts at the apex region versus controls [2] | Concentration at which effects were observed in culture [2] | p-ERBB2 level (p-ERBB2 in MCF-7 cells) | Expansion of retinal pigment epithelium (RPE) cells [3] | β-cell mass (rodent diabetes model)
1 | CN1CCN(Cc2ccc(NC(=O)Nc3ccc(Oc4cc(NC(=O)C5CC5)ncn4)cc3)cc2C(F)(F)F)CC1 [WS3] | A large number of EdU+ cells were observed; also recorded: significantly more SCs | 20 cells/100 μm | additional Atoh1-nGFP-positive cells near OHCs were seen | Significantly more MYO7+ cells | 10 nM | elevated | expands retinal pigment epithelium (RPE) cells | 
2 | CN1CCN(Cc2ccc(NC(=O)Cc3ccc(Oc4cc(NC(=O)C5CC5)ncn4)cc3)cc2C(F)(F)F)CC1 [WS6] | A large number of EdU+ cells were observed; also recorded: significantly more SCs | 20 cells/100 μm | additional Atoh1-nGFP-positive cells near OHCs were seen | Significantly more MYO7+ cells | 500 nM | elevated |  | increases p3-cell mass
